The structures appear in SMILES notation.

As to `CC(C)S(=O)(=O)N[C@H]1CCC[C@@H]1c1ccc(Br)cc1` (racemic) [Example 48, (+,−) Trans Propane-2-sulfonic Acid [2-(4-bromo-phenyl)-cyclopentyl]-amide], the melting point (commonly the temperature of the solid-liquid transition) lay within 128 to 130 °C.

These data come from patent US6639107B1, “Cyclopentyl sulfonamide derivatives” (Eli Lilly and Company, priority 1999, dated 2003).
